“And” between values parts separate entries of the source, which are not always exact repeats. Equal entries are not always repeated. Where two headings read alike, the source gives them in different places.
What was measured:
[1] = tested on: CCRF-CEM; test: 3H-TdR incorporation at 72 hr (24 hr drug exposure, wash, 48 hr); format: cell-based; conditions: read-out: IC50 in μM (3H-TdR incorporation at 72 hr) CCRF-CEM 24 h, CCRF-CEM T-cell Leukemia, 72 hr assay
Description: (§1) Exposition of 24 hr to drug, wash, incubated for another 48 hr (total of 72 hr assay)
(§2) (3H-Thymidine Incorporation Assay)

[2] = tested on: CEM/dCK-; test: as above; format: cell-based; conditions: for IC50: 24 h drug exposure, 72 hr assay; for Factor* (Resistance Factor = Ratio of dCK- on Wild-type CCRF-CEM): ratio of IC50 CEM/dCK- to IC50 CCRF-CEM
Description: as §1, §2

[3] = tested on: H-460; test: as above; format: cell-based, Human
Description: as §1, §2

[4] = tested on: SF-268; test: as above; format: cell-based, Human
Description: as §1, §2

[5] = tested on: MCF-7; test: as above; format: cell-based, Human
Description: as §1, §2

[6] = tested on: CCRF-CEM; test: 3H-TdR (3H-thymidine) incorporation assay at 72 hr; format: cell-based; conditions: 3H-TdR incorporation at 72 hr
Description: (§3) Table of IC50 Values (μM) for Controls
as §1, §2

[7] = tested on: CEM/dCK-; test: 3H-TdR (3H-thymidine) incorporation assay at 72 hr; format: cell-based; conditions: Homo sapiens, CCRF-CEM, read-out: IC50 CEM/dCK- 24 h, 24 h drug exposure, wash, another 48 hr; deoxycytidine kinase-deficient CCRF-CEM
Description: as §3, §1, §2

[8] = tested on: H-460; test: 3H-TdR (3H-thymidine) incorporation assay at 72 hr; format: cell-based, Human; conditions: 3H-TdR incorporation at 72 hr
[9] = Homo sapiens, CCRF-CEM, read-out: IC50 in μM (3H-TdR incorporation at 72 hr) CEM/dCK- 24 h, CCRF-CEM deoxycytidine kinase-deficient
[10] = Homo sapiens, NCI-H460, read-out: IC50 in μM (3H-TdR incorporation at 72 hr) H-460 24 h, H-460 Human Lung Carcinoma, 72 hr assay
[11] = Homo sapiens, SF-268, read-out: IC50 in μM (3H-TdR incorporation at 72 hr) SF-268 24 h, SF-268 Human Central Nervous System Tumor, 24 h drug exposure, 72 hr assay
[12] = Homo sapiens, MCF7, read-out: IC50 in μM (3H-TdR incorporation at 72 hr) MCF-7 24 h, MCF-7 Human Breast Carcinoma, 72 hr assay
[13] = read-out: IC50 in μM (3H-TdR incorporation at 72 hr) CEM/dCK- 24 h, CCRF-CEM deoxycytidine kinase-deficient
[14] = read-out: IC50 in μM (3H-TdR incorporation at 72 hr) SF-268 24 h, SF-268 Human Central Nervous System Tumor, 24 h drug exposure, 72 hr assay
[15] = read-out: IC50 in μM (3H-TdR incorporation at 72 hr) MCF-7 24 h, MCF-7 Human Breast Carcinoma, 72 hr assay

Row | SMILES | IC50 ([1]; Homo sapiens, CCRF-CEM) [µM] | IC50 [2, 9] [µM] | Factor* (Resistance Factor = Ratio of dCK- on Wild-type CCRF-CEM) [2] | IC50 [3, 10] [µM] | IC50 [4, 11] [µM] | IC50 [5, 12] [µM] | also measured
1 | Nc1ccn([C@@H]2CO[C@H](COC3(c4ccccc4)OC4OC(COC(=O)c5ccccc5)C(OC(=O)c5ccccc5)C(OC(=O)c5ccccc5)C4O3)O2)c(=O)n1 (stereo partly drawn) [Compound 184, 3,4,6-TRI-O-BENZOYL- 1,2-O-(1-(4-AMINO-2- OXO-2H-PYRIMIDIN-1-YL)- [1,3]DIOXOLAN-2- YLMETHYLOXY)-BENZYL)- □^˜D-GLUCOPYRANOSe] | 0.81 | 40 | 49 | 0.94 | 1.1 | 0.92 | –
2 | CC(CCCCCCc1ccccc1)C(=O)OC[C@H]1OC[C@@H](n2ccc(N)nc2=O)O1 (some centres unmarked) [Compound 245, 2-METHYL-8-PHENYL- OCTANOIC ACID 4-(4- AMINO-2-OXO-2H- PYRIMIDIN-1-YL)- [1,3]DIOXOLAN-2-YL METHYL ESTER] | < 0.0001 | 0.68 | >6800 | < 0.0001 | < 0.0001 | < 0.0001 | –
3 | CC(C)C[C@H](NC(=O)OCc1ccccc1)C(=O)Nc1ccn([C@@H]2CO[C@H](CO)O2)c(=O)n1 [Compound 254, {1-[1-(2-HYDROXYMETHYL- [1,3]DIOXOLAN-4-YL)-2- OXO-1,2-DIHYDRO- PYRIMIDIN-4-YL CARBAMOYL]-3-METHYL- BUTYL}-CARBAMIC ACID BENZYL ESTER] | 0.098 | 31 | 316 | 0.17 | 0.29 | 0.18 | –
4 | C/C(=N\c1ccn([C@@H]2CO[C@H](CO)O2)c(=O)n1)N(C)C [Compound 228, N′-[1-(2-HYDROXYMETHYL- [1,3]DIOXOLAN-4-YL)-2- OXO-1,2-DIHYDRO- PYRIMIDIN-4-YL]-N,N- DIMETHYL-ACETAMIDINE] | 0.44 | > 100 | >227 | 0.68 | 5.3 | 1.5 | –
5 | Nc1ccn([C@@H]2CO[C@H](COC(=O)c3ccccc3Cl)O2)c(=O)n1 [Compound 206, 2-CHLORO-BENZOIC ACID 4-(4-AMINO-2-OXO-2#H!- PYRIMIDIN-1-YL)- [1,3]DIOXOLAN-2-YL METHYL ESTER] | 0.009 | 80 | 8,889 | 0.012 | 0.043 | 0.056 | –
6 | O=c1nc(NS(=O)(=O)c2ccc([N+](=O)[O-])cc2[N+](=O)[O-])ccn1[C@@H]1CO[C@H](CO)O1 [Compound 188, N-[1-(2-HYDROXYMETHYL- [1,3]DIOXOLAN-4-YL)-2- OXO-1,2-DIHYDRO- […]-4-YL]-2,4- DINITRO- BENZENESULFONAMIDE] | 0.79 | > 100 | – | 0.097 | – | 3 | IC50 [4]: 2.4 µM
7 | Nc1ccn([C@@H]2CO[C@H](COC(=O)c3ccccc3Cc3ccccc3)O2)c(=O)n1 [Compound 220, BIPHENYL-2-CARBOXYLIC ACID 4-(4-AMINO-2-OXO- 2H-PYRIMIDIN-1-YL)- [1,3]DIOXOLAN-2-YL METHYL ESTER] | 0.0035 | > 100 | >28571 | 0.0034 | 0.042 | 0.029 | –
8 | Nc1ccn([C@@H]2CO[C@H](COC(=O)CCCCCCCc3ccccc3)O2)c(=O)n1 [Compound 198, 8-PHENYL-OCTANOIC ACID 4-(4-AMINO-2-OXO-2H- PYRIMIDIN-1-YL)- [1,3]DIOXOLAN-2-YL METHYL ESTER] | < 0.0001 | – | – | < 0.0001 | < 0.0001 | – | –
9 | CCC(CC)(CCCCCCc1ccccc1)C(=O)OC[C@H]1OC[C@@H](n2ccc(N)nc2=O)O1 [Compound 233, 2,2-DIETHYL-8-PHENYL- OCTANOIC ACID 4-(4- AMINO-2-OXO-2H- PYRIMIDIN-1-YL)- [1,3]DIOXOLAN-2-YL METHYL ESTER] | 11 | 18 | – | – | 12 | 13 | IC50 [1]: 9.7 µM; IC50 [2, 13]: 22 µM; IC50 [4, 14]: 17 µM and 15 µM; IC50 [5, 15]: 9.6 µM and 11 µM
10 | O=C(Nc1ccn([C@@H]2CO[C@H](CO)O2)c(=O)n1)C12C[C@@H]3C[C@@H](C[C@@H]1C3)C2 (stereo in doubt) [Compound 231, Hexahydro-2,5-Methano-Pentalene-3A-Carboxylic Acid [1-(2-Hydroxymethyl-[1,3]Dioxolan-4-Yl)-2-Oxo-1,2-Dihydro-Pyrimidin-4-Yl]-Amide] | 0.076 | > 100 | – | – | 1.1 | – | –
11 | Cc1cccc(C)c1C(=O)OC[C@H]1OC[C@@H](n2ccc(N)nc2=O)O1 [Compound 162, 1-[2-(2,6-DIMETHYL- BENZOYLOXYMETHYL)- [1,3]DIOXOLAN-4-YL]-2- OXO-1,2-DIHYDRO PYRIMIDIN-4-YL- AMMONIUM; CHLORIDE] | 3.3 | > 100 | – | – | 12 | 5.7 | IC50 [1]: 4.1 µM; IC50 [4, 14]: 17 µM; IC50 [5, 15]: 3.6 µM; IC50 ([6]; Homo sapiens, CCRF-CEM, read-out: IC50 CCRF-CEM 24 h, 24 h drug exposure, wash, another 48 hr): 2200 nM; IC50 ([6]; read-out: IC50 CCRF-CEM 24 h, 24 h drug exposure, wash, another 48 hr): 2800 nM; IC50 [7]: > 100000 nM; IC50 ([8]; Homo sapiens, NCI-H460, read-out: IC50 H-460 24 h, 24 h drug exposure, wash, another 48 hr): 8400 nM; IC50 ([8]; read-out: IC50 H-460 24 h, 24 h drug exposure, wash, another 48 hr): 6400 nM
12 | COc1ccc(C(=O)OC[C@H]2OC[C@@H](n3ccc(N)nc3=O)O2)cc1 [Compound 176, 4-METHOXY-BENZOIC ACID 4-(4-AMINO-2-OXO-2H- PYRIMIDIN-1-YL)- [1,3]DIOXOLAN-2- YLMETHYL ESTER] | 0.014 | 38 | – | 0.04 | 0.057 | – | IC50 [1]: 0.011 µM; IC50 [2, 13]: 68 µM; IC50 ([3]; read-out: IC50 in μM (3H-TdR incorporation at 72 hr) H-460 24 h, H-460 Human Lung Carcinoma, 72 hr assay): 0.043 µM; IC50 [4, 14]: 0.032 µM
13 | O=C(CCCCCCCc1ccccc1)Nc1ccn([C@@H]2CO[C@H](CO)O2)c(=O)n1 [Compound 197, 8-PHENYL-OCTANOIC ACID [1-(2-HYDROXYMETHYL- [1,3]DIOXOLAN-4-YL)-2- OXO-1,2-DIHYDRO- PYRIMIDIN-4-YL]-AMIDE] | < 0.0001 | – | – | < 0.0001 | < 0.0001 | < 0.0001 | –
14 | CCCCCCc1ccc(C(=O)OC[C@H]2OC[C@@H](n3ccc(N)nc3=O)O2)cc1 [Compound 191, 4-HEXYL-BENZOIC ACID 4- (4-AMINO-2-OXO-2H- PYRIMIDIN-1-YL)- [1,3]DIOXOLAN-2-YL METHYL ESTER] | < 0.0001 | – | – | < 0.0001 | < 0.0001 | < 0.0001 | –

Reference: US20030013660A1, “Dioxolane analogs for improved inter-cellular delivery” (Shire BioChem Inc., priority 2000, published 2003)
